“Also recorded” adds a separate entry of the source.
Legend:
[1] = test system: rod photoreceptors; assay: Scotopic flash ERG (a- and b-wave) after blue light-induced injury, model of dry AMD; format: in vivo, rat; details: for protection of retinal signaling: doses greater of 1 mg/kg, blue-light induced damage model in rodent; for protection of rod photoreceptors from blue light-induced injury: model of dry AMD
Excerpt: Seven days after exposure to 10,000 lux blue light, the amplitude of a- and b-wave components of the electroretinogram (ERG) is reduced to 20-30% of its pre-exposure amplitude (FIG. 4A). The ERG signals from median respondents in each group are shown in the inset in A. The tracing designated “α” illustrates the signal evoked in a naïve animal when stimulated with 20 candela-sec/m^2 white light. […] Full dose response showing the dose and corresponding retinal concentration of zalospirone is shown in the bar graph (FIG. 4A).
Seven days after exposure to 10,000 lux blue light, the amplitude of a- and b-wave components of the electroretinogram (ERG) is reduced to 20-30% of its pre-exposure amplitude (A). Full dose response showing the dose and corresponding retinal concentration of eptapirone is shown in the bar graph (A). The respective doses and corresponding retinal concentrations achieved following subcutaneous administration of eptapirone are shown on the abscissa. Data is plotted as the mean±SEM percentage of a- or b-wave measured prior to blue light-induced retinal degeneration. Protection of retinal architecture measured as the area of the outer nuclear layer (B) or the size of the lesion (C) in a section taken through the vertical meridian of the eye. H&E stained sections of from the median respondent, naïve and vehicle- or drug-treated animals illustrate the level protection achieved by treatment with 0.3 mg/kg eptapirone.
(§1) Bilateral flash ERG recordings on the dual dome Espion E^3 system (Diagnosys, LLC) were made prior to (baseline) and on the Day of zalospirone administration. Animals were anesthetized with a cocktail of 30 mg/mL Ketamine/0.2 mg/mL Dexmedetomidine (i.m.) to reach a final dose of 15 mg/kg Ketamine and 0.1 mg/kg Dexmedetomidine. Animals' eyes were given 1 drop each of 1% phenylephrine, 0.5% atropine and 1% proparacaine, sequentially. Noninvasive platinum wire loop electrodes moisturized with artificial tears (Goniovisc, Sigmapharmaceuticals, Inc.) were placed over the eyes, a reference electrode were placed in the bridge of the nose and a ground wire into the tail. Scotopic ERG measurements were made at 1e^−5 to 20 cd s/m^2. Photopic ERG measurements for S- and M-cone function were made at 8e^−4 to 40 cd s/m^2. The recording filter was set at 300 Hz.
(§2) Protection of rod photoreceptors by zalospirone from light induced injury is exemplified in FIG. 4 and by eptapirone in FIG. 5 below. Doses greater of 1 mg/kg provide 100% protection of structural integrity of the outer nuclear layer and 80% of retinal signaling in a blue-light induced damage model in rodent.

[2] = test system: rod photoreceptors / outer nuclear layer; assay: Histological analysis (H&E) of retinal architecture after blue light-induced injury; format: in vivo, rat; details: for retinal lesion (loss of photoreceptors) measured in the vertical meridian of the eye: blue light injury, maximal damage 1.5 mm superior to the optic nerve head; for protection of structural integrity of the outer nuclear layer: doses greater of 1 mg/kg, blue-light induced damage model in rodent; for outer nuclear cell count and retinal structure (H&E stained retinas): post-blue light, drug-treated vs naive and vehicle-treated retinae
Experimental: Protection of retinal architecture measured as the total count of photoreceptors (FIG. 4B) or the size of the lesion (FIG. 4C) in the section taken through the vertical meridian of the eye. (FIG. 4D) H&E stained sections of from the median respondent, naïve and vehicle- or drug-treated animals illustrate the level protection achieved by treatment with 1 mg/kg zalospirone.
On Day 7 post BL-exposure, animals were anesthetized with Euthasol and decapitated. Following decapitation, bilateral globes were enucleated and marked at the 12:00 position with black tissue ink. Both eyes from each animal were incubated in 5 mL of Davidson's fixative special overnight at RT. After ˜24 hours, both eyes were dehydrated in 50% ethanol (EtOH) for 1 hour at RT followed by storage in 70% EtOH at RT until paraffin processing. Eyes were then shipped to Premier Lab (Longmont, Colo.) for paraffin processing and embedding. Five micrometer thick paraffin sections were cut through the optic nerve head and mounted on glass.
For each eye, three H&E-stained slides were generated. Slides containing H&E-stained cross sections were imaged using the Nanozoomer whole slide scanner employing a 40× objective under bright field optics.
as §2

[3] = target: T1, 5-HT1A receptor (Homo sapiens, UniProt P08908); details: description of the compound; cited from earlier work
T1 sequence (P08908 1-422): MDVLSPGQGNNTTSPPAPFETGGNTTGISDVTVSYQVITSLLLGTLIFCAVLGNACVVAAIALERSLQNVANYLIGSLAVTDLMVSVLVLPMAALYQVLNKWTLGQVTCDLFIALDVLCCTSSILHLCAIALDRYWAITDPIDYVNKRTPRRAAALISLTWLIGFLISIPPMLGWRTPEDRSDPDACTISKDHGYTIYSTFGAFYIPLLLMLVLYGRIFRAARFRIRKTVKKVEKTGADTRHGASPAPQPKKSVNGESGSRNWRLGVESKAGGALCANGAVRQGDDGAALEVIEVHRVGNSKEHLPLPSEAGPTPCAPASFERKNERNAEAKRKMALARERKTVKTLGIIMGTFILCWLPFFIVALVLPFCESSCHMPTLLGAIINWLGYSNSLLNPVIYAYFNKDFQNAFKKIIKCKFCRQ

[4] = test system: cone photoreceptors; assay: Photopic ERG for S- and M-cone function after blue light-induced injury; format: in vivo, rat; details: pretreatment with 3 mg/kg; 7 days after 10,000 lux blue light
Excerpt: (§3) FIG. 6A to 6E illustrate that zalospirone protects cone photoreceptors from blue light-induced injury in a model of dry AMD. […] The amplitude of the medium-wave (blue- and green-light responsive) cone driven ERG signals were reduced by >90% while the short-wave (ultra violet and blue-light responsive) cone signals were virtually eliminated (A, B).
as §1
The protection of cone photoreceptors by zalospirone from light induced injury is exemplified in FIG. 6 below.

[5] = test system: cone photoreceptors; assay: Anti-opsin immunofluorescence in retinal cross sections after blue light-induced injury; format: in vivo, rat; details: pretreatment with 3 mg/kg
Excerpt: as §3
A subset of 5 μm thick paraffin sections cut through the vertical meridian (prepared by Premier Labs) was not stained with H&E, but instead was subjected to anti-opsin immunofluorescent staining to detect both SW and M/L cones. Briefly, sections were baked at 60° C. for 1 hr, deparaffinized in xylene, rehydrated in a decreasing series of alcohols, rinsed in PBS 3×, and blocked in PBS containing 0.1% Tween 20, 0.1% Triton×100, and 5% normal donkey serum for 2 hr at RT. Slides were reacted 0/N at 4° C. with a combined mixture of anti-SW (SCBT; SC-14363) and -M/L (Millipore, Ab5405) opsin antibodies diluted to 1:200 and 1:500, respectively in a PBS buffer containing 0.1% Tween 20, 0.1% Triton×100, and 5% normal donkey serum. To control for specificity of staining, an additional subset of slides were reacted with a combined mixture of anti-SW opsin antibody preadsorbed with sc-14363/blocking peptide and normal rabbit IgG. […] The number of SW and M/L cones was manually counted for both slides from each study eye in dual channel fluorescent images. […]

[6] = test system: retinal signaling; assay: Full-field ERG (modified ISCEV protocols) in normal animals, scotopic and photopic; format: in vivo, rat
Experimental: FIG. 7 illustrates that zalospirone selectively enhances the scotopic b-wave. Visual function was assessed in vivo in the rat using standard ISCEV protocols. Measurements were made under scotopic (dark-adapted) conditions (“A”-“C”) or photopic conditions (“D”,“E”). In dark adapted animals, ERG recordings elicited by low intensity stimuli (1×10^−4 candela-sec m^2) treatment with 3 mg/kg zalospirone results in a 50% enhancement of the b-wave (“A”). […] Under photopic conditions signals predominately driven by the cone photoreceptors, the photopic b-wave (“D”) or ERG response to 20 Hz flicker (“E”) were unaffected by treatment with zalospirone (3 mg/kg).
FIG. 8 “A” to “C” illustrates that zalospirone selectively enhances the scotopic b-wave.
as §1
In addition to protecting retinal photoreceptors and preserving their function during exposure to an insult, the enhancement or normalization of retinal signaling after injury would be provide significant value in degenerative retinal diseases. The International Society for Clinical Electrophysiology of Vision (ISCEV) provides standards for ascertaining the effects of interventions on retinal signaling. […] Expanding on the observation that scotopic signaling was enhanced in normal animals, it was hypothesized that zalospirone could contribute to the normalization of retinal signaling following injury.

[7] = test system: scotopic b-wave; assay: Scotopic b-wave ERG with treatment after blue light-induced injury; format: in vivo, Sprague Dawley rat; details: single subcutaneous 3 mg/kg given after blue light injury (3.5 hour, 10,000 lux); stimulus 10^−5 candela-sec/m^2; N=8
Experimental: FIGS. 9A and 9B illustrate that treatment with zalospirone restores of the amplitude of the scotopic b-wave following light induced injury. FIG. 9A is a representative ERG recordings from a Sprague Dawley rat which was dark adapted overnight and exposed to white light stimulus (10^−5 candela-sec/m^2) are shown at baseline before injury, 7 days following exposure to a 3.5 hour exposure to 10,000 lux blue light and again at 3 days later following a single subcutaneous administration to 3 mg/kg zalospirone. […] The data are presented as mean±SEM, N=8.
as §1, with “The recording filter was set at 300 Hz.” left out

[8] = 7 days after 10,000 lux blue light
[9] = 3 mg/kg, dark adapted, 20 candela-sec m^2
[10] = 3 mg/kg, photopic conditions, normal animals

Row | Compound | protection of retinal signaling [1] [%] | protection of rod photoreceptors from blue light-induced injury [1, 8] | retinal lesion (loss of photoreceptors) measured in the vertical meridian of the eye [2] | protection of structural integrity of the outer nuclear layer [2] [%] | outer nuclear cell count and retinal structure (H&E stained retinas) [2] | 5-HT1A receptor activity [3] | protection of the ERG signal ([1]; median animal dosed with 3 mg/kg, 7 days after 10,000 lux blue light, 20 candela-sec/m^2 white light stimulus) | photopic b-wave amplitude (medium-wave and short-wave cone driven ERG signals) [4] | cones by short wave and medium/long wave opsin immunofluorescent staining [5] | rod-based signaling (scotopic b-wave) ([6]; 3 mg/kg, dark adapted rats, low intensity stimuli ≦10^−3 candelas-sec/m^2) | retinal oscillatory potentials [6, 9] | scotopic b-wave at greater intensity stimuli [6, 9] | enhancement of the scotopic b-wave ([6]; 3 mg/kg, dark adapted, low intensity stimuli 1×10^−4 candela-sec m^2) [%] | ERG response to 20 Hz flicker [6, 10] | photopic b-wave [6, 10] | scotopic signaling, modified ISCEV full-field electroretinography ([6]; rat) | scotopic b-wave amplitude after injury compared with baseline [7]
1 | Cn1c(=O)cnn(CCCCN2CCN(c3ncccn3)CC2)c1=O [eptapirone, 4-Methyl-2-[4-(4-pyrimidin-2-yl-piperazin-1-yl)-butyl]-2H-[1,2,4]triazine-3,5-dione] | 80 | protects rod photoreceptors from blue light-induced injury | almost entirely prevents this lesion from forming | 100 | maintains outer nuclear cell count but also normalizes retinal structure | very potent and highly selective 5-HT1A receptor full agonist |  |  |  |  |  |  |  |  |  |  | 
2 | O=C1[C@@H]2C3C=CC([C@H]4CC[C@@H]34)[C@@H]2C(=O)N1CCCCN1CCN(c2ncccn2)CC1 [zalospirone, (3aα,4α,4aβ,6aβ,7α,7aα)-hexahydro-2-(4-(4-(2-pyrimidinyl)-1-piperazinyl)butyl)-4,7-etheno-1H-cyclobut(f)isoindole-1,3(2H)-dione] | 80 | protects rod photoreceptors from blue light-induced injury | almost entirely prevents this lesion from forming | 100 | maintains outer nuclear cell count but also normalizes retinal structure | selective 5-HT1A partial agonist | complete protection | significantly protected; also recorded: largely restored ERG signaling | virtually identical to that in naïve animals; also recorded: prevents the loss of cones | preferentially augments rod-based signaling | neither the b-wave (“B”) nor the retinal oscillatory potentials (“C”) were affected | neither the b-wave (“B”) nor the retinal oscillatory potentials (“C”) were affected | 50 | unaffected | unaffected | selectively enhanced scotopic signaling | fully restored the b-wave to its baseline amplitude; also recorded: restored b-wave amplitudes to the baseline levels

Reference: patent US20150328221A1, “COMPOUNDS FOR PROTECTION OF PHOTORECEPTOR CELLS AND FOR ENHANCING VISUAL FUNCTION UNDER LOW LIGHT CONDITIONS” (Allergan, Inc., priority 2014, published 2015)
